According to US10555987B2, “GHRH agonists for the treatment of ischemic disorders” (UNIVERSITY OF MIAMI, priority 2012, dated 2020):
“And” between values parts separate entries of the source, which are not always exact repeats. Equal entries are not always repeated. Non-standard residues stand in square brackets, D forms with d. Residues, ends and D or L forms follow the SMILES beside them. *: point of attachment. Phe(F5) = N[C@@H](Cc1c(F)c(F)c(F)c(F)c1F)C(=O)O; Desaminotyrosyl = O=C(CCc1ccc(O)cc1)*; NMeY = CN[C@@H](Cc1ccc(O)cc1)C(=O)O; Agmatine = N=C(N)NCCCCN*; Nle = CCCC[C@H](N)C(=O)O; Orn = NCCC[C@H](N)C(=O)O; Abu = CC[C@H](N)C(=O)O; GABA = NCCCC(=O)O

Key:
GH release = assay: GH releasing potency in vivo, subcutaneous administration (Example 14, Table 12); set-up: species or system rat; settings: for Serum GH level at selected time after injection (ng/ml), 0 min / Serum GH level at selected time after injection (ng/ml), 15 min / Serum GH level at selected time after injection (ng/ml), 30 min: male rats, dose 3 μg/kg, mean ± SEM
How it was run: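 Potency is expressed relative to GHRH(1-29)NH2 and JI-38 (each = 1), via equivalent GHRH(1-29)NH2 dose read from a standard curve. Peptides in 5% mannitol given i.v. or s.c. to anaesthetised male Sprague-Dawley rats (200-250 g); serum GH measured by ELISA at selected times.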

GHRH receptor [1] = target: T1, GHRH receptor (Homo sapiens, UniProt Q02643); assay: Receptor binding in vitro, 125I-labeled [His1,Nle27]-hGHRH(1-32)NH2, membrane receptors of human anterior pituitary cells (Table 14); settings: for Relative affinity (Binding potency) compared to JI-38: JI-38 = 1; for Relative affinity (Binding potency) compared to hGHRH(1-29): hGHRH(1-29)NH2 = 1
T1 sequence (Q02643 23-423): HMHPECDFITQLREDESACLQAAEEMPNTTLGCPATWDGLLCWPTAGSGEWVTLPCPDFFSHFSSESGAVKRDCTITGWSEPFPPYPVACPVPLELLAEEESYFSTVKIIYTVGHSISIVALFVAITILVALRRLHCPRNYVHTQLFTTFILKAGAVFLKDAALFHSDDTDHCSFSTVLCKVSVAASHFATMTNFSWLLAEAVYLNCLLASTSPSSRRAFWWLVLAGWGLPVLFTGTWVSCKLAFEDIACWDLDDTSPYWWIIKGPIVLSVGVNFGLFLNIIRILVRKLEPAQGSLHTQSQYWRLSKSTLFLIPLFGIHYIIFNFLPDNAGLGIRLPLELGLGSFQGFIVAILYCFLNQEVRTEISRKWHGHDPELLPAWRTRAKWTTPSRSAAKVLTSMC
Text: Normal human pituitary was purchased from the National Hormone and Peptide Program (UCLA Medical Center, Torrance, Calif.).

[2] = test system: myocardial infarction (Fisher-344 rats); assay: Hemodynamic analysis (pressure-volume loops), body and heart weight after MI, compared to JI-38 (Example 15, Table 16); assay type: in vivo, rat; set-up: key to ESP (End-Systolic Pressure) / EDP (End-Diastolic Pressure) / ESV (End-Systolic Volume) / PRSW (Preload Recruitable Stroke Work) / Ees (End-systolic Elastance) / dP/dt max (peak rate of the pressure rise) / dP/dt max_EDV / dP/dt min / TAU (relaxation time constant calculated by Weiss method) / SV (Stroke Volume) / CO (Cardiac Output) / SW (Stroke Work) / EF / Ea/Ees / Ea (arterial Elastance): ↓: downward arrow denotes lower than JI-38; ↑: upward arrow denotes greater than JI-38; =denotes same as JI-38; ⬇⬇: double arrow denotes greater effect; ⬆⬆: double arrow denotes greater effect; settings: rat MI model, s.c. twice daily; pressure-volume loops; expressed in comparison to JI-38
How it was run: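 Female 6-month-old Fisher-344 rats after permanent left coronary ligation received GHRH agonists subcutaneously twice daily from 2 h post-surgery (n=10/group). Under ketamine/xylazine/acepromazine anesthesia, LV pressure-volume loops were recorded via carotid micromanometer catheter, calibrated by hypertonic saline bolus and cuvette method; echocardiography also serial.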

GHRH receptor [3] = target: T1, GHRH receptor; assay: GHRH receptor binding, competition with 125I-labeled JV-1-42, human pituitary membrane homogenates (Table 7); set-up: Normal human pituitaries were purchased from the National Hormone and Peptide Program; tissue National Hormone and Peptide Program (A.F. Parlow, Harbor-UCLA Medical Center, Torrance, Calif.); host or cells: normal human pituitary, membrane fraction; settings: JI-38 = 1, Table 7
Text: Normal human pituitaries were purchased from the National Hormone and Peptide Program (A.F. Parlow, Los Angeles, County Harbor-UCLA Medical Center, Torrance, Calif.).

Row | SMILES | potency as compared to JI-38 in both i.v. and s.c. tests (GH release) | Serum GH level at selected time after injection (ng/ml), 0 min (GH release; s.c.) [ng/mL] | Serum GH level at selected time after injection (ng/ml), 15 min (GH release; s.c.) | Serum GH level at selected time after injection (ng/ml), 30 min (GH release; s.c.) [ng/mL] | Relative potency compared to GHRH(1-29), 15 min (GH release; s.c.) | Relative potency compared to GHRH(1-29), 30 min (GH release; s.c.) | Relative affinity (Binding potency) compared to hGHRH(1-29) (GHRH receptor [1]) | CO (Cardiac Output) [2] | EDP (End-Diastolic Pressure) [2] | EF [2] | ESP (End-Systolic Pressure) [2] | ESV (End-Systolic Volume) [2] | Ea (arterial Elastance) [2] | Ea/Ees [2] | Ees (End-systolic Elastance) [2] | PRSW (Preload Recruitable Stroke Work) [2] | SV (Stroke Volume) [2] | SW (Stroke Work) [2] | TAU (relaxation time constant calculated by Weiss method) [2] | dP/dt max (peak rate of the pressure rise) [2] | other results
1 | CCCC[C@H](NC(=O)[C@@H](NC(=O)[C@H](CC(=O)O)NC(=O)[C@H](CCC(N)=O)NC(=O)[C@H](CC(C)C)NC(=O)[C@H](CC(C)C)NC(=O)[C@H](CCCN)NC(=O)[C@H](CCCNC(=N)N)NC(=O)[C@H](C)NC(=O)[C@H](CO)NC(=O)[C@H](CC(C)C)NC(=O)[C@H](CCC(N)=O)NC(=O)[C@H](CC)NC(=O)[C@H](CC(C)C)NC(=O)[C@@H](NC(=O)[C@H](CCCN)NC(=O)[C@H](CCCNC(=N)N)NC(=O)[C@H](Cc1ccc(O)cc1)NC(=O)[C@H](CO)NC(=O)[C@H](CCC(N)=O)NC(=O)[C@@H](NC(=O)[C@H](Cc1ccccc1)NC(=O)[C@@H](NC(=O)[C@H](C)NC(=O)[C@H](CC(=O)O)NC(=O)[C@H](C)NC(=O)[C@H](Cc1ccc(O)cc1)NC)[C@@H](C)CC)[C@@H](C)O)C(C)C)[C@@H](C)CC)C(=O)N[C@@H](CC(=O)O)C(=O)NCCCCNC(=N)N [Peptide P-20356, [N—Me-Tyr^1, Gln^8, Orn^12, Abu^15, Orn^21, Nle^27, Asp^28, Agm^29]hGHRH(1-29) NH2] (H-[NMeY]ADAIFTQSYR[Orn]VL[Abu]QLSAR[Orn]LLQDI[Nle]D-Agmatine) | increased potency as compared to JI-38 | 25.3 ± 3.9 | 305.4 ± 40.0 ng/mL | 152.4 ± 21.8 | 91.2 | 150.9 | 7.50 | = | = | = | = | = | ↑ | = | = | = | = | = | = | = | Relative potency compared to JI-38, 15 min (GH release; s.c., listed as MR-356): 1.4 and 1.45; Relative potency compared to JI-38, 30 min (GH release; s.c., listed as MR-356): 1.4 and 1.35; Relative affinity (Binding potency) compared to JI-38 (GHRH receptor [1]; listed as MR-356): 2.7 and 2.69; GHRH receptor binding affinity (in words) (GHRH receptor [1]; compared to JI-38): improved receptor binding affinity; dP/dt max_EDV [2]: =; dP/dt min [2]: =; Relative affinity (Binding potency) vs JI-38 (GHRH receptor [3]): 16.11
2 | CCCC[C@H](NC(=O)[C@@H](NC(=O)[C@H](CC(=O)O)NC(=O)[C@H](CCC(N)=O)NC(=O)[C@H](CC(C)C)NC(=O)[C@H](CC(C)C)NC(=O)[C@H](CCCN)NC(=O)[C@H](CCCNC(=N)N)NC(=O)[C@H](C)NC(=O)[C@H](CO)NC(=O)[C@H](CC(C)C)NC(=O)[C@H](CCC(N)=O)NC(=O)[C@H](CC)NC(=O)[C@H](CC(C)C)NC(=O)[C@@H](NC(=O)[C@H](CCCN)NC(=O)[C@H](CCCNC(=N)N)NC(=O)[C@H](Cc1ccc(O)cc1)NC(=O)[C@H](CO)NC(=O)[C@H](CC(N)=O)NC(=O)[C@@H](NC(=O)[C@H](Cc1c(F)c(F)c(F)c(F)c1F)NC(=O)[C@@H](NC(=O)[C@H](C)NC(=O)[C@H](CC(=O)O)NC(=O)[C@@H](C)NC(=O)CCc1ccc(O)cc1)[C@@H](C)CC)[C@@H](C)O)C(C)C)[C@@H](C)CC)C(=O)N[C@@H](CO)C(=O)N[C@@H](CCCNC(=N)N)C(=O)NCCCC(N)=O [Peptide P-25502, [Dat^1, D-Ala^2, Fpa5^6, Orn^12, Abu^15, Orn^21, Nle^27, Gab^30]hGHRH(1-30)NH2] (Desaminotyrosyl-[dA]DAI[Phe(F5)]TNSYR[Orn]VL[Abu]QLSAR[Orn]LLQDI[Nle]SR[GABA]-NH2) | increased potency as compared to JI-38 | 61.7 ± 8.1 | 266.7 ± 21^ ng/ml | 153.2 ± 33.3 | 76.5 | 152.3 | 3.54 | ↓ | = | ↓ | = | = | ↑ | = | ↑ | = | ↓ | = | ↓ | = | Relative potency compared to JI-38, 15 min (GH release; s.c.): 1.21; Relative potency compared to JI-38, 30 min (GH release; s.c.): 1.36; Relative GH-releasing potency compared to JI-38 in s.c. tests (fold, range over time points) (GH release; s.c., time not specified, listed as MR-502): 1.2-1.4; Relative affinity (Binding potency) compared to JI-38 (GHRH receptor [1]): 1.27; dP/dt max_EDV [2]: =; dP/dt min [2]: =; Relative affinity (Binding potency) vs JI-38 (GHRH receptor [3]): 13.18
